Reference: patent publication US20180153995A1, “USE OF ANTIMICROBIAL POLYMERS FOR RE-SENSITIZATION OF MICROORGANISMS UPON EMERGENCE OF RESISTANCE TO ANTI-MICROBIAL AGENTS” (Technion Research & Development Foundation Limited, priority 2008, published 2018)
Where two headings read alike, the source gives them in different places.

Assays:
[1] = tested on: E. coli K-12 efflux knockout mutant; assay type: cell-based, Escherichia coli; settings: E. coli AG100A (efflux−)
Method in brief: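 Broth microdilution, inocula 10^5 bacteria/ml, 24 h at 37 °C. Growth read as OD620 against calibration standards.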

S. aureus 15877 = assay: Antibiotic MIC by microdilution with or without sub-MIC polymer; assay type: cell-based, Staphylococcus aureus
S. aureus 43300 = assay: as above; assay type: cell-based, Staphylococcus aureus
E. coli 16329 = assay type: cell-based, Escherichia coli
Protocol: MICs were determined by microdilution susceptibility testing in 96-well plates (by Nunc) using inocula of 10^5 bacteria per ml. Cell populations were evaluated by optical density measurements at 620 nm and were calibrated against a set of standards. Hundred (100) μl of a bacterial suspension were added to 100 μl of culture medium (control) or to 100 μl of culture medium containing various polymer concentrations in 2-fold serial dilutions. Inhibition of proliferation was determined by optical density measurements at 620 nm after an incubation period of 24 hours at 37° C.
100 μl of a bacterial suspension were added to 100 μl of culture medium (control) or to 100 μl of culture medium containing various antibiotic and C14(9-ene)KKNC12KNH2 (SEQ ID NO: 5) concentrations in 2-fold serial dilutions. Inhibition of proliferation was determined by optical density measurements at 620 nm after an incubation period of 24 hours at 37° C.

S. aureus 15819 = assay: Antibiotic MIC by microdilution with or without sub-MIC polymer; assay type: cell-based, Staphylococcus aureus; settings: S. aureus 15819
MRSA 15903 = assay: microbe, parasite or virus in culture; assay type: cell-based, Staphylococcus aureus
Method in brief: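 Values are FIC indexes, summing each agent's MIC in combination divided by its MIC alone, for MRSA 15903. Interpretation: <0.5 clear re-sensitization, 0.5 to 4 marginal or none, >4 antagonistic.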

[2] = +½ MIC (3.12 μM) C12(5-ene)KKNC12KNH2
[3] = +⅓ MIC (2.1 μM) C12(5-ene)KKNC12KNH2
[4] = +¼ MIC (1.6 μM) C12(5-ene)KKNC12KNH2

`Cc1onc(-c2ccccc2)c1C(=O)N[C@@H]1C(=O)N2[C@@H]1SC(C)(C)[C@@H]2C(=O)O` [Oxacillin, oxacillin] was tested, and the “Antibiotic MIC in presence of C12K(NC8K)7NH2 (SEQ ID NO: 4), +½ MIC” value ([1]; polymer at ½ of its MIC (Table 16)) was 0.25 µg/mL, the “Antibiotic MIC in presence of C12K(NC8K)7NH2 (SEQ ID NO: 4), +⅓ MIC” value ([1]; polymer at ⅓ of its MIC (Table 16)) was 0.25 µg/mL and the “Antibiotic MIC in presence of the OAK, +¼ MIC” value ([1]; the OAK at ¼ of its MIC (Table 17)) was 0.5 µg/mL. For the same molecule, the “Antibiotic MIC in presence of the OAK, +½ MIC” value ([1]; the OAK at ½ of its MIC (Table 17)) was 0.25 µg/mL, the “Antibiotic MIC in presence of the OAK, +⅓ MIC” value ([1]; the OAK at ⅓ of its MIC (Table 17)) was 0.5 µg/mL and the “Antibiotic MIC” value (S. aureus 15877; [2]) was 16 µg/mL. The “Antibiotic MIC” value (S. aureus 15877; [3]) was 32 µg/mL, the “Antibiotic MIC” value (S. aureus 43300; [4]) was 0.125 µg/mL and the “Antibiotic MIC” value (S. aureus 43300; +¼ MIC (1.6 μM) C12KKNC12KNH2) was 0.5 µg/mL. For the same molecule, the “Antibiotic MIC” value (S. aureus 43300; +¼ MIC (1.6 μM) C16(9-ene)KKNC12KNH2) was 0.25 to 0.5 µg/mL, the “Antibiotic MIC” value (S. aureus 43300; +½ MIC (3.12 μM) C12K(KNC12K)2NH2) was 0.25 µg/mL and the “Antibiotic MIC” value (S. aureus 43300; +½ MIC (3.12 μM) C12KKNC12KNH2) was 0.25 µg/mL. For the same molecule, the “Antibiotic MIC” value (S. aureus 43300; +½ MIC (3.12 μM) C16(9-ene)KKNC12KNH2) was 0.03 to 0.06 µg/mL, the “Antibiotic MIC” value (S. aureus 43300; [3]) was 0.125 µg/mL and the “Antibiotic MIC” value (S. aureus 43300; +⅓ MIC (2.1 μM) C12K(KNC12K)2NH2) was 0.25 µg/mL. For the same molecule, the “Antibiotic MIC” value (E. coli 16329) was >512 µg/mL, the “Antibiotic MIC” value (E. coli 16329; E. coli 16329, no polymer (None), Table 10) was >512 µg/mL and the “Antibiotic MIC” value (E. coli 16329; E. coli U-16329, +¼ MIC C12K(NC8K)5NH2) was >512 µg/mL. The “Antibiotic MIC” value (E. coli 16329; E. coli U-16329, +½ MIC C12K(NC8K)5NH2) was >512 µg/mL, the “Antibiotic MIC” value (E. coli 16329; E. coli U-16329, +⅓ MIC C12K(NC8K)5NH2) was >512 µg/mL and the “Antibiotic MIC, None” value (E. coli 16329; E. coli U-16329, antibiotic alone (Table 15)) was >512 µg/mL. For the same molecule, the “Antibiotic MIC” value (E. coli 16329; E. coli U-16329, no polymer (None), Table 14) was >512 µg/mL, the “Antibiotic MIC in presence of C12K(NC8K)7NH2 (SEQ ID NO: 4), +¼ MIC” value (E. coli 16329; E. coli U-16329, polymer at ¼ of its MIC) was >512 µg/mL and the “Antibiotic MIC in presence of C12K(NC8K)7NH2 (SEQ ID NO: 4), +½ MIC” value (E. coli 16329; E. coli U-16329, polymer at ½ of its MIC) was 512 µg/mL. The “Antibiotic MIC in presence of C12K(NC8K)7NH2 (SEQ ID NO: 4), +⅓ MIC” value (E. coli 16329; E. coli U-16329, polymer at ⅓ of its MIC) was >512 µg/mL, the “Antibiotic MIC” value (S. aureus 15819; [4]) was 2 µg/mL and the “Antibiotic MIC” value (S. aureus 15819; +¼ MIC (1.6 μM) C12K(KNC12K)3NH2) was 4 µg/mL. For the same molecule, the “Antibiotic MIC” value (S. aureus 15819; +¼ MIC (1.6 μM) C12KKNC12KNH2) was 8 µg/mL, the “Antibiotic MIC” value (S. aureus 15819; [2]) was 1 µg/mL and the “Antibiotic MIC” value (S. aureus 15819; +½ MIC (3.12 μM) C12K(KNC12K)3NH2) was 0.5 to 1 µg/mL. The “Antibiotic MIC” value (S. aureus 15819; +½ MIC (3.12 μM) C12KKNC12KNH2) was 2 µg/mL, the “Antibiotic MIC” value (S. aureus 15819; [3]) was 2 µg/mL and the “Antibiotic MIC” value (S. aureus 15819; +⅓ MIC (2.1 μM) C12K(KNC12K)3NH2) was 2 µg/mL. The “Antibiotic MIC” value (S. aureus 15819; +⅓ MIC (2.1 μM) C12KKNC12KNH2) was 8 µg/mL, the “Antibiotic MIC” value (S. aureus 15819; no polymer (None), Table 8) was 4 µg/mL and the “Antibiotic MIC” value (S. aureus 15819; no polymer (None), Table 11) was 8 µg/mL. For the same molecule, the “Antibiotic MIC” value (S. aureus 15819; no polymer (None), Table 13) was 8 µg/mL, the MIC (MRSA 15903; MRSA 15903, +¼ polymer MIC (1.6 μM) NC12(KNC12K)2NH2) was 256 µg/mL and the MIC (MRSA 15903; MRSA 15903, +½ polymer MIC (3.1 μM) NC12(KNC12K)2NH2) was 0.17 µg/mL. The MIC (MRSA 15903; MRSA 15903, +⅓ polymer MIC (2.1 μM) NC12(KNC12K)2NH2) was 0.34 µg/mL, the MIC (MRSA 15903; MRSA 15903, antibiotic alone) was 256 µg/mL and the “concentration up to which oxacillin alone is inactive” value (MRSA 15903; MRSA 15903, oxacillin alone) was > 25 µM. The “MIC, ½ + MIC OAK” value (MRSA 15903; MRSA 15903, with C12K(KNC10K)3NH2 (SEQ ID NO: 10) at ½ of its MIC) was 0.5 µg/mL, the “MIC, ⅓ + MIC OAK” value (MRSA 15903; MRSA 15903, with C12K(KNC10K)3NH2 (SEQ ID NO: 10) at ⅓ of its MIC) was 16 to 64 µg/mL and the MIC (MRSA 15903; S. aureus CI-15903, +polymer (¼ MIC) C12(5-ene)KKNC12KNH2) was 64 µg/mL. It also gave an MIC (MRSA 15903; S. aureus CI-15903, +polymer (½ MIC) C12(5-ene)KKNC12KNH2) of 0.25 µg/mL, an MIC (MRSA 15903; S. aureus CI-15903, +polymer (⅓ MIC) C12(5-ene)KKNC12KNH2) of 4 µg/mL and an MIC (MRSA 15903; S. aureus CI-15903, alone) of 256 µg/mL. The MIC (MRSA 15903; Staphylococcus aureus, MRSA, 24 h) was 256 µg/mL, the MIC (MRSA 15903; Staphylococcus aureus, MRSA, read-out: MIC of oxacillin) was 256 µg/mL and the MIC (MRSA 15903; Staphylococcus aureus, MRSA, read-out: MIC of oxacillin, MRSA 15903, + ½ MIC NC12(KNC12K)2NH2) was 0.4 µM. It also gave an MIC (MRSA 15903; Staphylococcus aureus, MRSA, read-out: MIC of oxacillin, MRSA 15903, + ½ MIC NC12(KNC12K)2NH2 (text)) of 0.17 µg/mL, an MIC (MRSA 15903; Staphylococcus aureus, MRSA, read-out: MIC of oxacillin, MRSA 15903, + ⅓ MIC NC12(KNC12K)2NH2) of 0.8 µM and an MIC (MRSA 15903; Staphylococcus aureus, MRSA, read-out: MIC of oxacillin, MRSA 15903, + ⅓ MIC NC12(KNC12K)2NH2 (text)) of 0.34 µg/mL. The MIC (MRSA 15903; Staphylococcus aureus, MRSA, read-out: MIC of oxacillin, MRSA 15903, oxacillin alone) was 576 µM.
